Results taken from ChEMBL document CHEMBL1201862, “PubChem BioAssay data set” (2004).
“And” between values parts separate entries of the source, which are not always exact repeats. Equal values may be shown once. The source made the active and inactive calls.

Legend:
[1] = target: T1, Dual specificity protein phosphatase 3 (Homo sapiens, UniProt P51452); assay: VHR1 phosphatase inhibitors, primary screen, biochemical, absorbance, uHTS (AID 1654)
[2] = target: T1, Dual specificity protein phosphatase 3; assay: VHR1 phosphatase inhibitors, biochemical (AID 1878)
[3] = target: T2, Dual specificity protein phosphatase 6 (Rattus norvegicus, UniProt Q64346); assay: MKP-3 phosphatase inhibitors, primary screen, biochemical, rat enzyme, in vitro (AID 425)
T2 sequence (Q64346 whole entry): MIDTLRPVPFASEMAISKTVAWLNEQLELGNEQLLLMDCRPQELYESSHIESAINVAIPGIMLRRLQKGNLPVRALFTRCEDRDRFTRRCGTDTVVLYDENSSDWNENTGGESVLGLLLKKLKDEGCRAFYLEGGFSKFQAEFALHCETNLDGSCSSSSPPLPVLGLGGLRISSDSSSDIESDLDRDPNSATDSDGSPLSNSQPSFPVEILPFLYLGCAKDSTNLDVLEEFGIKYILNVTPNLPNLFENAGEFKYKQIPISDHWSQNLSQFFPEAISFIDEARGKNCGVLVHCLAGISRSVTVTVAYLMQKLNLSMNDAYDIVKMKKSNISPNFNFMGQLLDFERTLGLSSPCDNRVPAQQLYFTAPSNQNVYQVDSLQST

[4] = target: DNA dC->dU-editing enzyme APOBEC-3A (Homo sapiens, UniProt P31941); assay: APOBEC3A DNA deaminase inhibitors, dose response, biochemical (AID 504722); format: functional
[5] = target: Glucose-6-phosphate 1-dehydrogenase (Homo sapiens, UniProt P11413); assay: human G6PD enzyme inhibitors, dose response, selectivity assay for P. falciparum G6PD inhibitor project, biochemical, fluorescence (AID 504792); format: functional
[6] = target: T1, Dual specificity protein phosphatase 3; assay: SAR VHR1 absorbance Assay for In Vitro dose response studies. [Related pubchem assays (depositor defined):AID1654, AID1661, AID1878, AID1992, AID2004]
[7] = target: T1, Dual specificity protein phosphatase 3; assay: SAR VHR1 Fluorescent Assay for In Vitro dose response studies. [Related pubchem assays (depositor defined):AID1654, AID1661, AID1878, AID1992, AID2004, AID2070, AID2085]; format: functional
[8] = target: T3, Tyrosine-protein phosphatase non-receptor type 7 (Homo sapiens, UniProt P35236); assay: redox-dependent HePTP inhibition, mechanism study, biochemical, fluorescence (AID 2068); format: functional
T3 sequence (P35236 whole entry): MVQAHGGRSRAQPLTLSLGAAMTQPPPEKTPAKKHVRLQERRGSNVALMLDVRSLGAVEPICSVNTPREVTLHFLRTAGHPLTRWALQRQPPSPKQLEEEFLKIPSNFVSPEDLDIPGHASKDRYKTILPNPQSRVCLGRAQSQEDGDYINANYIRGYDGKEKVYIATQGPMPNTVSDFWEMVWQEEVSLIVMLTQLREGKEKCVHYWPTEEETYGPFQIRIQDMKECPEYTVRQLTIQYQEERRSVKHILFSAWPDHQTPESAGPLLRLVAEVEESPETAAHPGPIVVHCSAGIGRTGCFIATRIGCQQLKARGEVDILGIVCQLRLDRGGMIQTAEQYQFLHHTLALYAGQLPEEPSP

[9] = target: T2, Dual specificity protein phosphatase 6; assay: SAR analysis of inhibitors of MKP-3 - Set 2. [Related pubchem assays (depositor defined):AID1055, AID1661, AID425, AID553, AID566]; format: functional
[10] = target: T3, Tyrosine-protein phosphatase non-receptor type 7; assay: HePTP (PTPN7) phosphatase inhibitor potency, SAR follow-up, biochemical, set 2 (AID 449736); format: functional
[11] = target: DNA dC->dU-editing enzyme APOBEC-3G (Homo sapiens, UniProt Q9HC16); assay: Dose Response confirmation of small molecule APOBEC3G DNA Deaminase Inhibitors via a fluorescence-based single-stranded DNA deaminase assay. [Related pubchem assays (depositor defined):AID493012, AID493028]; format: functional
[12] = target: T3, Tyrosine-protein phosphatase non-receptor type 7; assay: SAR analysis of chemical inhibitors of HePTP using a Fluorescent assay - Set 2. [Related pubchem assays (depositor defined):AID1059, AID1077, AID1661, AID2085, AID521]; format: functional
[13] = target: T1, Dual specificity protein phosphatase 3; assay: SAR VHR1 Fluorescent Assay for In Vitro dose response studies Set 2. [Related pubchem assays (depositor defined):AID1654, AID1661, AID1878]; format: functional
[14] = target: T2, Dual specificity protein phosphatase 6; format: functional
[15] = target: T4, Rac GTPase-activating protein 1 (Homo sapiens, UniProt Q9H0H5); assay: MgcRacGAP GTPase-activating activity inhibitors, confirmation, biochemical, ADP Hunter fluorescence, primary and confirmatory (AID 624330); format: functional
T4 sequence (Q9H0H5 whole entry): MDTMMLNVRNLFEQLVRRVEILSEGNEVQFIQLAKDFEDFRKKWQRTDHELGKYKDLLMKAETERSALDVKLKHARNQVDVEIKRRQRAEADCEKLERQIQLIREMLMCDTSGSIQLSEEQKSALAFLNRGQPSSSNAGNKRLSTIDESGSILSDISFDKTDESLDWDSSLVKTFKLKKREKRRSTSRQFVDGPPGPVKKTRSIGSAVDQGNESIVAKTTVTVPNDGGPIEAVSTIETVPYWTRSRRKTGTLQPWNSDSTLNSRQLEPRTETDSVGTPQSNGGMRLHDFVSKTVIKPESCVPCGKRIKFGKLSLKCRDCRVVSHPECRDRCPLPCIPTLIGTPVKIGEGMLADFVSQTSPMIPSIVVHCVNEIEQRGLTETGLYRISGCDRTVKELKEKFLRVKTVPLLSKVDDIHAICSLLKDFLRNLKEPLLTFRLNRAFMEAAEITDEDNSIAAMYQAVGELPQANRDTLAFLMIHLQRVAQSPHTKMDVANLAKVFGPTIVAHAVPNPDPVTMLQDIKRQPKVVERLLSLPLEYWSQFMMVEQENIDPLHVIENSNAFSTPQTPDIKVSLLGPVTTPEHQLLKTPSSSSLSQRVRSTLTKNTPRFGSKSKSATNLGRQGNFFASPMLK

[16] = target: Beta-adrenergic receptor kinase 1 (Homo sapiens, UniProt P25098); assay: GRK2 inhibitors displacing RNA aptamer, dose response, biochemical, flow cytometry beads, FAM-aptamer, powder set 1 (AID 588720)
[17] = target: T5, Carboxy-terminal domain RNA polymerase II polypeptide A small phosphatase 1 (Homo sapiens, UniProt Q9GZU7); assay: inhibitors of CTDSP1, concentration-response testing, biochemical assay, absorbance-based, actives from ultra-high-throughput screening (AID 540297); format: functional
T5 sequence (Q9GZU7 whole entry): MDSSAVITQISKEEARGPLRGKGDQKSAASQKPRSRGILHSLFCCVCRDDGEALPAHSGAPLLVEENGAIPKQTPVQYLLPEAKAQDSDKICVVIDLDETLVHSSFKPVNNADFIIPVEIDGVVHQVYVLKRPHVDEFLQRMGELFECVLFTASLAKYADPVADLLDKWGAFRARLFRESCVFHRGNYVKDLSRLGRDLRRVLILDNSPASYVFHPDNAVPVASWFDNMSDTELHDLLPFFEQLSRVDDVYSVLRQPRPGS

Cytochrome P450 2C19 = Cytochrome P450 2C19 (Homo sapiens, UniProt P33261); assay: Cytochrome panel assay with activity outcomes. Panel member name: p450-cyp2c19 Compounds with AC50 equal or less than 10 uM are considered active; format: functional
Cytochrome P450 2D6 = Cytochrome P450 2D6 (Homo sapiens, UniProt P10635);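 note: CYP2D6 member of a cytochrome P450 panel assay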
Cytochrome P450 1A2 = target: T6, Cytochrome P450 1A2 (Homo sapiens, UniProt P05177);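 note: PubChem cytochrome P450 panel assay, CYP1A2 panel member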
T6 sequence (P05177 whole entry): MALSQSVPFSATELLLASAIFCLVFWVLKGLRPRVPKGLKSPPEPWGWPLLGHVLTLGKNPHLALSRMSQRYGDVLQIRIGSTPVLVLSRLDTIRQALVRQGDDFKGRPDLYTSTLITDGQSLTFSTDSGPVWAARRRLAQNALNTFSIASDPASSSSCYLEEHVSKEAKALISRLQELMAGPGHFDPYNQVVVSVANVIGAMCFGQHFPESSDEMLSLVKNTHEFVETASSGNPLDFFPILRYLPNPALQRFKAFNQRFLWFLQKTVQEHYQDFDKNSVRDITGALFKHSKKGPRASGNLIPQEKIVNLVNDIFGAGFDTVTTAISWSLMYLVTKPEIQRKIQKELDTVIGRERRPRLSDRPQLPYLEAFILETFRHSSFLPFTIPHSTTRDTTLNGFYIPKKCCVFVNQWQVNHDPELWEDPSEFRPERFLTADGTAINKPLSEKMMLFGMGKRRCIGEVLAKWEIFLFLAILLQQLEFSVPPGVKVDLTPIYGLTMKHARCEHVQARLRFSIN

Cytochrome P450 3A4 = Cytochrome P450 3A4 (Homo sapiens, UniProt P08684);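 note: CYP3A4 tested as one member of a cytochrome P450 panel screen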
Cytochrome P450 2C9 = Cytochrome P450 2C9 (Homo sapiens, UniProt P11712)
[18] = cytotoxicity in HEK-293T cells, dose response, cytotoxicity control for BCR NF-kB inhibitor project, luminescence, B-cell screen hits (AID 489021); format: functional, cell-based;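 note: HEK-293T cells carrying an NF-kB luciferase reporter; cells exposed to compound for about 14 hours before viability readout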
Jurkat [19] = assay: SAR Analysis of small molecule inhibitors of […] specific antigen receptor-induced NF-kB activation in a Jurkat cell line using a luminescence assay - Set 3. [Related pubchem assays (depositor defined):AID435022, AID435025, AID465]; format: functional, cell-based; conditions: Homo sapiens
HEK293 [20] = assay: SAR Analysis of small molecule inhibitors of B-cell specific antigen receptor-induced NF-kB activation in a HEK-293T cell line using a luminescence assay - Set 2. [Related pubchem assays (depositor defined):AID435022, AID435025, AID489021]; format: functional, cell-based; conditions: Homo sapiens
HEK293 [21] = assay: cytotoxicity in HEK293T NF-kB-Luc cells, SAR follow-up, cytotoxicity control for NF-kB activator project, cell-based, resazurin fluorescence (AID 493251); format: functional; conditions: Homo sapiens
BJ [22] = assay: cytotoxicity toward BJ-TERT fibroblasts, dose response, cell-based, RAS-independent, luminescence (AID 1933); format: functional; conditions: Homo sapiens
BJ [23] = assay: cells; format: functional, cell-based; conditions: Homo sapiens
BJ [24] = assay: cytotoxicity toward BJ-TERT-LT-ST fibroblasts, dose response, cell-based, RAS-independent, luminescence (AID 1935); format: functional; conditions: Homo sapiens;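 note: BJ fibroblasts immortalized with TERT plus LT and ST oncogenes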
[25] = cytotoxicity toward DRD oncogenic fibroblasts, dose response, cell-based, non-viral oncogenic, luminescence (AID 1934); format: functional; conditions: Homo sapiens
[26] = growth induction of Burl-1 ts yeast mutant, dose response, counter-screen for SUMOylation pathway inhibitor project, whole organism, S. cerevisiae, luminescence (AID 463199); format: functional
BJ [27] = assay: cytotoxicity toward Ras-transformed BJeLR fibroblasts, dose response, cell-based, alamar blue fluorescence, cherrypicked samples (AID 2631); format: functional; conditions: Homo sapiens;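 note: confirmatory dose-response assay in RAS-dependent BJ fibroblasts engineered with TERT, LT and ST, with cytotoxicity read by fluorescence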
HEK293 [28] = assay: cells; conditions: Homo sapiens
HEK293 [29] = assay: cells; conditions: Homo sapiens; remark: listed apart in the source
Jurkat [30] = assay: antigen receptor-induced NF-kB inhibitors, dose response, Jurkat, luciferase reporter, luminescence, B- and T-cell (AID 489004); format: functional, cell-based; conditions: Homo sapiens;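 note: NF-kB luciferase reporter Jurkat cells stimulated with PMA plus ionomycin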
[31] = cytotoxicity in HEK-293T NF-kB-Luc cells, dose response, cytotoxicity control for B/T-cell NF-kB inhibitor project, cell-based, uHTS hits (AID 489019); format: functional;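 note: IC50 reflects cytotoxicity as loss of cell viability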

T1 sequence (P51452 whole entry): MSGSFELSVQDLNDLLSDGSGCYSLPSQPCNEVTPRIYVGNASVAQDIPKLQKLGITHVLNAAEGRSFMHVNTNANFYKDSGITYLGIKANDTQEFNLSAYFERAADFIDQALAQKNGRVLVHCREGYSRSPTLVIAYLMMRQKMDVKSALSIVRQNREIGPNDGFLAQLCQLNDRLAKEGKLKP
Chain of DNA dC->dU-editing enzyme APOBEC-3A (P31941 whole entry): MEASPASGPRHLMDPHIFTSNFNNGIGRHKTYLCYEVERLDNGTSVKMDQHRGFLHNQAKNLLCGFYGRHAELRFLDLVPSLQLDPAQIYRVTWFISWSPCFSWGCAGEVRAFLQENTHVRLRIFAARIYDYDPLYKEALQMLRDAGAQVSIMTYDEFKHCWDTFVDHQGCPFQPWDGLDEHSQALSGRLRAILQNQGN
Chain of Cytochrome P450 2C19 (P33261 whole entry): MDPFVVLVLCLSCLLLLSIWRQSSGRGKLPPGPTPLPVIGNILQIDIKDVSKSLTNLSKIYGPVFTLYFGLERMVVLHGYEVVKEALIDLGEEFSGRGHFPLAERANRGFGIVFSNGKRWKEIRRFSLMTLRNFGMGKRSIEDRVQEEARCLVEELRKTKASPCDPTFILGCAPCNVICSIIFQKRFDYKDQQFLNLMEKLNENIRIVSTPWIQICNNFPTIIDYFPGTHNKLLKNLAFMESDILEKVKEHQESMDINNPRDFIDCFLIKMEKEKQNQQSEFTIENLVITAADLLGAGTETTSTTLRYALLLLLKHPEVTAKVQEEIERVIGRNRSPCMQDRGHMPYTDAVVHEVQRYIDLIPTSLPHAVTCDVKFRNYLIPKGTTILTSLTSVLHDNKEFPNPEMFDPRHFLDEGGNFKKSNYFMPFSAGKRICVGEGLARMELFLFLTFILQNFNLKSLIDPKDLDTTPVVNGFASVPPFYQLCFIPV
Chain of Cytochrome P450 3A4 (P08684 whole entry): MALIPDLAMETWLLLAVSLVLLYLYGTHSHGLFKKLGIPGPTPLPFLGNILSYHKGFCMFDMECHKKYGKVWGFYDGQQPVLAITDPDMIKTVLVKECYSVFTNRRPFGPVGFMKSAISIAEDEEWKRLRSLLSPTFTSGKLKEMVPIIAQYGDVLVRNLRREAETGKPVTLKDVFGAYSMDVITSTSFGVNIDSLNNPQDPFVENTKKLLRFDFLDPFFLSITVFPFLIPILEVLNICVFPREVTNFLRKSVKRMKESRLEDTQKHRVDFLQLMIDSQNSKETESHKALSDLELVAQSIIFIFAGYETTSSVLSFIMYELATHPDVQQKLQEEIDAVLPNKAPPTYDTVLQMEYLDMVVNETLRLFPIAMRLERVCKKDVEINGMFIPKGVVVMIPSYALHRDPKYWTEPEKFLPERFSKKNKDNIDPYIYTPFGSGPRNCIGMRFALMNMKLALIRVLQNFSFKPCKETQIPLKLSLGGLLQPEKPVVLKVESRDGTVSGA
Chain of Beta-adrenergic receptor kinase 1 (P25098 whole entry, the tested form may be a part): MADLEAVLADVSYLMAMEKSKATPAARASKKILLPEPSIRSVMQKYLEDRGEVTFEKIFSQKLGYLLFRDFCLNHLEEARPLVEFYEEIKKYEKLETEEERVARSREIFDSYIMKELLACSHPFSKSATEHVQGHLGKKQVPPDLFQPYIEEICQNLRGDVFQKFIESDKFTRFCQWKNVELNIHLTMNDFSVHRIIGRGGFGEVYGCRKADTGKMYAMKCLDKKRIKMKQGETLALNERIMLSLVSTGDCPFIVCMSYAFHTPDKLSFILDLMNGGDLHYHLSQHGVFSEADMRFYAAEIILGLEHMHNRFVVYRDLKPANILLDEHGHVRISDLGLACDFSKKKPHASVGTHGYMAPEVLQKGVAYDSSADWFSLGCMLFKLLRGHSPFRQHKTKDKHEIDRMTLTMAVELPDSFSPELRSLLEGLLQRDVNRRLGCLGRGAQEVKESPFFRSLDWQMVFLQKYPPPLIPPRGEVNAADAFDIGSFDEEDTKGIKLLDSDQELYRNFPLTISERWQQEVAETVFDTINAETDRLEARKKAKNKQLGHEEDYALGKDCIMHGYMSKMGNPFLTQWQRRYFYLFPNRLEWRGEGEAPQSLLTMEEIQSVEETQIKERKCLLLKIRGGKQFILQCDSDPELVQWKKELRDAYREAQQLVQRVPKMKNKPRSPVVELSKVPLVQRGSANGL
Chain of Glucose-6-phosphate 1-dehydrogenase (P11413 whole entry): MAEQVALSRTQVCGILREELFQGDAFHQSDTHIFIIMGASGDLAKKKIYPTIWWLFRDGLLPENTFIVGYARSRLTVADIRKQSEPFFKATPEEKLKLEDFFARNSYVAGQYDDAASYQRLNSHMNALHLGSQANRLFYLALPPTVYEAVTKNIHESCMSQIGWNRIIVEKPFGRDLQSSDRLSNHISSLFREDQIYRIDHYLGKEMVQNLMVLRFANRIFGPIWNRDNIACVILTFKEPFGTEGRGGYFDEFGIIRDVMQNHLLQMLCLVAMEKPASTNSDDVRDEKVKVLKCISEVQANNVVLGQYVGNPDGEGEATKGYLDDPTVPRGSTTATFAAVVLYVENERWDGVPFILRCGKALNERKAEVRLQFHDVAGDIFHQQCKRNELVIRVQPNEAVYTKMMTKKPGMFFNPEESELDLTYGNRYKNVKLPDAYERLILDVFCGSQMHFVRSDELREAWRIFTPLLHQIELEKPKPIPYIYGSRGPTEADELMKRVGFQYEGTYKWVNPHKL
Chain of DNA dC->dU-editing enzyme APOBEC-3G (Q9HC16 whole entry): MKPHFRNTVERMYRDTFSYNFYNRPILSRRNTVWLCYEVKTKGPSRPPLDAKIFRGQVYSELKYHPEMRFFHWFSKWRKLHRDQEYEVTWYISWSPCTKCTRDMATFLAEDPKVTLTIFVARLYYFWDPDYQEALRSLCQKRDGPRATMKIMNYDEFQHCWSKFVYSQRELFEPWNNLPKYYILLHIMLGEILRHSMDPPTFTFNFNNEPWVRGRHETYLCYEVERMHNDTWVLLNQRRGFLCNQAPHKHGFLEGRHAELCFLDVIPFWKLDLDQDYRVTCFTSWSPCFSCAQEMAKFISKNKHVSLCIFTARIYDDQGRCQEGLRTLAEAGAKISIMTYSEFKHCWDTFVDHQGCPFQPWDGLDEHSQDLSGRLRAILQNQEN
Chain of Cytochrome P450 2D6 (P10635 whole entry): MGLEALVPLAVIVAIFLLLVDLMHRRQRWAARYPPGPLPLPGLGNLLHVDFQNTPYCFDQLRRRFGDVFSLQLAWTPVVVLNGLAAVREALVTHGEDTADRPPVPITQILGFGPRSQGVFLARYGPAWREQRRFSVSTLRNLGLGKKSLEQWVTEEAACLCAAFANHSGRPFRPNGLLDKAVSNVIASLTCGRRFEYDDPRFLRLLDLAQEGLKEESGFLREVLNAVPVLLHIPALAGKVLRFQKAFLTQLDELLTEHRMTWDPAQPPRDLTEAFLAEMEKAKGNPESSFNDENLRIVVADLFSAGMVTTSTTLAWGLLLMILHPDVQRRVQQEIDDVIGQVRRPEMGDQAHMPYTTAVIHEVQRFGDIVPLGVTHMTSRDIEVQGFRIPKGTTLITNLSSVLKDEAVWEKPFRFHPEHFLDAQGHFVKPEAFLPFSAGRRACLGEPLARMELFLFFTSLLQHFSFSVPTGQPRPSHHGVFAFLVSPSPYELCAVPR
Chain of Cytochrome P450 2C9 (P11712 whole entry): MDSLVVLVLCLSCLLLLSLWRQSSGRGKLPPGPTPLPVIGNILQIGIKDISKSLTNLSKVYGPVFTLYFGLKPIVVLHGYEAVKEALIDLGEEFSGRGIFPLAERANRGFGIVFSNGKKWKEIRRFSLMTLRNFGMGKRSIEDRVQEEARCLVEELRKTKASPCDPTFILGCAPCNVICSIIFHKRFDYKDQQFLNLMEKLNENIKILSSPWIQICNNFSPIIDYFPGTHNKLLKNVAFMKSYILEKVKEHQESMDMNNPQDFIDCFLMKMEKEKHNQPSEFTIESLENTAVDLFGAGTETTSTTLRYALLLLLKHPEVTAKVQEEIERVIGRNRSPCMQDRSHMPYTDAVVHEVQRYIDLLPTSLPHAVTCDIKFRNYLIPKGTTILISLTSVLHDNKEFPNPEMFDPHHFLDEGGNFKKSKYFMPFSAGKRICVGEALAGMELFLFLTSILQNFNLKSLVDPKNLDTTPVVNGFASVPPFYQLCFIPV

Compound: CN1CCN(C(=O)c2sc(=S)n(-c3ccccc3)c2N)CC1
- IC50 [1]: 1.27 µM (active)
- IC50 [2]: 3.53 µM (active)
- IC50 [3]: > 158 µM (not active)
- IC50 [4]: > 100 µM (inactive)
- IC50 [5]: > 80 µM (inactive)
- IC50 [6]: 0.53 µM (active)
- IC50 [7]: > 99 µM (inactive)
- IC50 [8]: 0.0586 µM (active)
- IC50 [9]: > 100 µM (inactive)
- IC50 [10]: 1.14 µM (active) and > 100 µM (inactive) and 7.06 µM (active)
- IC50 [11]: 5.51 µM (active)
- IC50 [12]: 1.05 µM (active)
- IC50 [13]: 0.26 µM (active)
- IC50 [14]: > 99 µM (inactive)
- IC50 [15]: 191 µM (active)

Compound: O=C(CCS(=O)(=O)c1ccc(Br)cc1)Nc1ccc(Br)cc1F
- EC50 [16]: 21.2 µM (active)
- IC50 [17]: 22 µM (active)

Compound: O=C(O)c1cc2ccccc2c(Cc2c(O)c(C(=O)O)cc3ccccc23)c1O [PAMOIC ACID]
- AC50 (Cytochrome P450 2C19): inactive
- AC50 (Cytochrome P450 2D6): inactive
- AC50 (Cytochrome P450 1A2): inactive
- AC50 (Cytochrome P450 3A4): inactive
- AC50 (Cytochrome P450 2C9): inactive

Compound: CCCNC(=O)CSCc1nc(-c2ccc(SC)cc2)oc1C
- IC50 [18]: > 80 µM (inactive)
- IC50 (Jurkat [19]): > 80 µM (inactive)
- IC50 (HEK293 [20]): 42.5 µM (inactive)
- IC50 (HEK293 [21]): > 80 µM (inactive)

Compound: CC(C)c1cc(C(=O)N/N=C/C(Br)=C/c2ccccc2)[nH]n1
- EC50 (BJ [22]): 29.6 µM (active)
- EC50 (BJ [23]): 4.12 µM (active)
- EC50 (BJ [24]): > 150 µM (inconclusive)
- EC50 [25]: 5.12 µM (active)
- AC50 [26]: 137 µM (active)
- EC50 (BJ [27]): 22.2 µM (active)
- EC50 (HEK293 [28]): > 59.7 µM (inactive)
- EC50 (HEK293 [29]): > 59.7 µM (inactive)

Compound: Cn1nc(CC(=O)Nc2ccc3c(c2)CCC3)c2ccccc2c1=O
- IC50 (Jurkat [30]): > 80 µM (inactive)
- IC50 [31]: > 80 µM (inactive)
